Reference: patent US20250129344A1, “MODIFIED GLUTAMATE DEHYDROGENASE AND APPLICATION THEREOF” (Hunan Lier Biotech Co., Ltd., priority 2021, published 2025)
Changes are numbered by the printed parent chain.

Key:
Test in all cases: Dynamic properties (Michaelis-Menten) of LsGluDH mutant, PPO reductive amination
Assay type in all cases: biochemical
Details in all cases: PPO 5-100 mM, NADPH 0.15 mM, NH4Cl 50 mM, PBS pH 7.5, 30° C., diluted crude enzyme, 340 nm
[1] = target: T1, Lysinibacillus sphaericus glutamate dehydrogenase (LsGluDH, SEQ ID NO: 2) variant A175G-V173G, SEQ ID NO: 35 (Lysinibacillus pinottii, UniProt A0ABT2DNY0, A175G/V173G)
T1 sequence (A0ABT2DNY0 1-457 V173G/A175G): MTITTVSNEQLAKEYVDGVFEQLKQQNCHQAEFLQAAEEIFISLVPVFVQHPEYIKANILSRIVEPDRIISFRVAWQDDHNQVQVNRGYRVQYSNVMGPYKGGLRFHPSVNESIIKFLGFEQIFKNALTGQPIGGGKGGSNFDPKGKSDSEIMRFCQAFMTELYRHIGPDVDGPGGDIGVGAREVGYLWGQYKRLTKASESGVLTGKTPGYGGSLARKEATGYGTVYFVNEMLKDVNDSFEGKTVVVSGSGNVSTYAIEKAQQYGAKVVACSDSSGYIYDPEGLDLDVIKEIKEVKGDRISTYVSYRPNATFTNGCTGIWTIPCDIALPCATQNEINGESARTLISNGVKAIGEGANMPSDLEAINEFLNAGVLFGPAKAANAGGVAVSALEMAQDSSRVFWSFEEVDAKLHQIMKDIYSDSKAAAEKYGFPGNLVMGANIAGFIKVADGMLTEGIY
Description: (§1) A plurality of reaction systems (200 μL) comprising PBS of 100 mM pH 7.5 (pH was adjusted with aqueous ammonia solution), NADPH (reductive) of 0.15 mM, NH4Cl of 50 mM, diluted (500 folds) crude enzyme solution of 10% volume and the substrate PPO at various concentrations (5-100 mM) were formulated on a 96-well plate. The intensity of the UV absorption at 340 nm was detected at 30° C., and the rate of change in absorption over time (mA/min) was recorded. The obtained parameters were plugged into Michaelis-Menten equation, in which the reaction velocity was calculated with the rate of change in absorption.
(§2) The mutants were prepared with the coding nucleic acid of LsGluDH (SEQ ID NO: 2) as the template, and the enzyme activities and the dynamic parameters Vmax and Km were measured, according to the method of Example 1. The resulted mutants and the enzyme activities and the dynamic parameters thereof are shown in Table 2, and the relative enzyme activity means the percentage of the enzyme activity of the mutant to the enzyme activity of the mutant of SEQ ID NO: 31.

[2] = target: T2, Lysinibacillus sphaericus glutamate dehydrogenase (LsGluDH, SEQ ID NO: 2) variant A175G-A182R, SEQ ID NO: 36 (Lysinibacillus pinottii, UniProt A0ABT2DNY0, A175G/A182R)
T2 sequence (A0ABT2DNY0 1-457 A175G/A182R): T1 sequence (A0ABT2DNY0 1-457 V173G/A175G) with G173V, A182R
Description: as §1, §2

[3] = target: T3, Lysinibacillus sphaericus glutamate dehydrogenase (LsGluDH, SEQ ID NO: 2) variant A175G-V173G-A182R, SEQ ID NO: 37 (Lysinibacillus pinottii, UniProt A0ABT2DNY0, A175G/A182R/V173G)
T3 sequence (A0ABT2DNY0 1-457 V173G/A175G/A182R): T1 sequence (A0ABT2DNY0 1-457 V173G/A175G) with A182R
Description: as §1, §2

[4] = target: T4, Lysinibacillus sphaericus glutamate dehydrogenase (LsGluDH, SEQ ID NO: 2) variant A175G-I133V, SEQ ID NO: 33 (Lysinibacillus pinottii, UniProt A0ABT2DNY0, A175G/I133V)
T4 sequence (A0ABT2DNY0 1-457 A175G/I133V): T1 sequence (A0ABT2DNY0 1-457 V173G/A175G) with I133V, G173V
Description: as §1, §2

For `CP(=O)(O)CCC(=O)C(=O)O` [PPO, 2-carbonyl-4-(hydroxymethylphosphono) butyric acid], the Km [1] was 49 mM, the Vmax [1] was 64 mA/min and the Km [2] was 38 mM. For the same molecule, the Vmax [2] was 46 mA/min, the Km [3] was 31 mM and the Vmax [3] was 58 mA/min. It also gave a Km [4] of 35 mM and a Vmax [4] of 39 mA/min.
